From US5380825A (Sigma Chemical Company, priority 1991, dated 1995)
Converted amounts (≈) assume the structure as drawn.

Experiments:
Format in all cases: binding
[1] = test system: antisera to AZT, Rabbit 1 (immunized with AZT-3-V:BSA); experiment: FPIA comparison of tracers, antiserum of Rabbit 1 (Table 1); conditions: for Polarization Units (P × 1000): 1 pmole of tracer, antiserum at the given titer; for ED50 AZT: concentration of AZT giving 50% reduction in polarization of this tracer relative to 0 tube; for Titer [Ab]: dilution of antiserum required to obtain the given polarization units with 1 pmole of tracer
Experimental: (§1) The immunogen (1 mg in 1 ml) was emulsified with an equal volume of Freund's Complete Adjuvant and injected intradermally into each of two female albino rabbits. The process was repeated in two weeks. Two weeks later, monthly subcutaneous booster injections were begun with 0.5 mg in 0.5 ml of the immunogen and 0.5 ml of Freund's Incomplete Adjuvant per animal. The rabbits were bled biweekly by a marginal ear vein technique beginning six weeks after the primary immunization. The blood collected was refrigerated, allowing clots to form, and the supernatant (antiserum) retained. The antiserum from each rabbit was collected and stored, either at -20° C. without preservative, or at 4° C. after addition of sodium azide to a final concentration of 0.1%. The same schedule was followed for each immunogen. Rabbits immunized produced antibodies to AZT.
(§2) Fluorescence Polarization Immunoassay for AZT
(§3) An equal volume of precipitation reagent was added per microcentrifuge tube. The tubes were centrifuged at greater than 9,000×g for 1 minute.
(§4) (2) A 17.5 ul sample of each serum extract was brought to approximately pH 7-8 by the addition of buffer.
(§5) (4) After an appropriate incubation time, the polarization of each reaction mixture was determined using a polarization spectrofluorimeter.
(§6) As further illustration of the invention polyclonal antibodies were raised in two rabbits by immunization with the conjugate of Example 4 (AZT-3-V:BSA) as is more fully described in Example 45 and stored at 4° C. with 0.1% sodium azide. A number of tracers were then compared as to their performance in FPIA using the antisera raised from two rabbits.
(§7) ^(1) TITER was defined as the dilution of antiserum (i.e., [Ab])
(§8) required to obtain the given polarization units (P × 1000) with 1
(§9) required to give a 50% reduction in polarization relative to a control (0
(§10) tube) containing no unlabeled AZT.

[2] = test system: antisera to AZT, Rabbit 2 (immunized with AZT-3-V:BSA); experiment: FPIA comparison of tracers, antiserum of Rabbit 2 (Table 1); conditions: for Polarization Units (P × 1000): 1 pmole of tracer, antiserum at the given titer; for ED50 AZT: concentration of AZT giving 50% reduction in polarization of this tracer relative to 0 tube; for Titer [Ab]: dilution of antiserum required to obtain the given polarization units with 1 pmole of tracer
Experimental: as §1, §2, §3, §4, §5, §6, §7, §8, §9, §10

AZT antibodies = experiment: Immunological activity / tracer performance in FPIA for AZT (qualitative); conditions: for inhibition in FPIA for AZT: inhibitor of polarization
Experimental: as §3, §4, §5

| Compound | Polarization Units (P × 1000) [1] | ED50 AZT [1] | Titer [Ab] [1] | Polarization Units (P × 1000) [2] | ED50 AZT [2] | Titer [Ab] [2] | immunological activity in FPIA for AZT (AZT antibodies; qualitative) | further results |
| --- | --- | --- | --- | --- | --- | --- | --- | --- |
| Cc1cn([C@H]2C[C@H](N=[N+]=[N-])[C@@H](CO)O2)c(=O)n(CC(=O)Nc2ccc3c(c2)C(=O)OC32c3ccc(O)cc3Oc3cc(O)ccc32)c1=O [Example 22, 5-[2-(3'-azido-3'-deoxythymid-3-yl)-acetamido]-fluorescein] | 164 P × 1000 | 1.4 µg/mL (≈ 2.14 µM) | 150 | 150 P × 1000 | 2.0 µg/mL (≈ 3.06 µM) | 105 |  |  |
| Cc1cn([C@H]2C[C@H](N=[N+]=[N-])[C@@H](CO)O2)c(=O)n(CCCC(=O)NCCNC(=S)Nc2ccc3c(c2)C(=O)OC32c3ccc(O)cc3Oc3cc(O)ccc32)c1=O [Example 15, 5-[[4-(3'-azido-3'-deoxythymid-3-yl)-butyramido]-ethylthiocarbamyl]-fluorescein] | 165 P × 1000 | 4.0 µg/mL (≈ 5.1 µM) | 200 | 184 P × 1000 | 4.0 µg/mL (≈ 5.1 µM) | 73 | Immunological activity against AZT was confirmed |  |
| Cc1cn([C@H]2C[C@H](N=[N+]=[N-])[C@@H](CO)O2)c(=O)n(CCCC(=O)Nc2ccc3c(c2)C(=O)OC32c3ccc(O)cc3Oc3cc(O)ccc32)c1=O [Example 13, 5-[4-(3'-azido-3'-deoxythymid-3-yl)-butyramido]-fluorescein] | 170 P × 1000 | 1.3 µg/mL (≈ 1.9 µM) | 450 | 179 P × 1000 | 3.9 µg/mL (≈ 5.71 µM) | 115 |  | affinity and sensitivity as tracer (AZT antibodies; qualitative): satisfactory affinity and sensitivity |
| Cc1cn([C@H]2C[C@H](N=[N+]=[N-])[C@@H](CO)O2)c(=O)n(CC(=O)O)c1=O [Example 19, 3-carboxymethyl-3'-azido-3'-deoxythymidine] |  |  |  |  |  |  | immunological activity |  |
| Cc1cn([C@H]2C[C@H](N=[N+]=[N-])[C@@H](CO)O2)c(=O)n(CCCNc2nc(Cl)nc(Nc3ccc4c(c3)C(=O)OC43c4ccc(O)cc4Oc4cc(O)ccc43)n2)c1=O [Example 34, 3-[3-[4-(Fluoresceinyl-5)-6-chloro-s-triazin-2-yl]-aminopropyl]-3'-azido-3'-deoxythymidine] | 171 P × 1000 | 2.0 µg/mL (≈ 2.55 µM) | 500 | 168 P × 1000 | 4.0 µg/mL (≈ 5.11 µM) | 140 | immunologically active |  |
| Cc1cn([C@H]2C[C@H](N=[N+]=[N-])[C@@H](CO)O2)c(=O)n(CCCC(=O)Nc2ccc3c(c2)C2(OC3=O)c3ccc(O)cc3Oc3cc(O)ccc32)c1=O [Example 14, 6-[4-(3'-azido-3'-deoxythymid-3-yl)-butyramido]-fluorescein] | 167 P × 1000 | 0.6 µg/mL (≈ 0.879 µM) | 150 | 159 P × 1000 | 1.4 µg/mL (≈ 2.05 µM) | 74 |  |  |
| Cc1cn([C@H]2C[C@H](N=[N+]=[N-])[C@@H](COC(=O)CCC(=O)NCCNC(=S)Nc3ccc4c(c3)C(=O)OC43c4ccc(O)cc4Oc4cc(O)ccc43)O2)c(=O)[nH]c1=O [Example 42] |  |  |  |  |  |  | Immunoactivity of this label was demonstrated |  |
| 3-carbethoxy-3'-azido-3'-deoxythymidine [Example 21] |  |  |  |  |  |  | immunologically active | "cross-reactivity" relative to AZT in an AZT assay by FPIA (AZT antibodies; relative to AZT): approximately 110% |
| Cc1cn([C@H]2C[C@H](N=[N+]=[N-])[C@@H](CO)O2)c(=O)n(CCNC(=O)CCc2ccc(O)cc2)c1=O [Example 33, 3-[2-[3-(4-hydroxyphenyl)-propionamido]-ethyl]-3'-azido-3'-deoxythymidine] |  |  |  |  |  |  |  | inhibition in FPIA for AZT (AZT antibodies; qualitative): effective inhibitor of polarization |
| Cc1cn([C@H]2C[C@H](N=[N+]=[N-])[C@@H](CO)O2)c(=O)n(CCCC(=O)NCC(=O)N[C@@H](Cc2ccc(O)cc2)C(=O)O)c1=O [Example 18, N-[4-(3'-azido-3'-deoxythymid-3-yl)-butyryl]-glycyl-L-tyrosine] |  |  |  |  |  |  | immunologically active |  |
| COC(=O)C(Cc1ccc(O)cc1)NC(=O)CCCn1c(=O)c(C)cn([C@H]2C[C@H](N=[N+]=[N-])[C@@H](CO)O2)c1=O (stereo partly drawn) [Example 16, 2-[4-(3'-azido-3'-deoxythymid-3-yl)-butyramido]-3-(4-hydroxyphenyl)-propionic acid methyl ester] |  |  |  |  |  |  | immunologically active |  |
| Cc1cn([C@H]2C[C@H](N=[N+]=[N-])[C@@H](CO)O2)c(=O)n(CCCN)c1=O [Example 28, 3-(3-aminopropyl)-3'-azido-3'-deoxythymidine] |  |  |  |  |  |  | immunologically active |  |
| O=C(O)CCc1ccc(O)cc1 [HPPA, 3-(4-hydroxyphenyl)propionic acid, reference compound] |  |  |  |  |  |  |  | inhibition in FPIA for AZT (AZT antibodies; qualitative): unlike 3-(4-hydroxyphenyl)propionic acid (HPPA), was an effective inhibitor of polarization |
| Cc1cn([C@H]2C[C@H](N=[N+]=[N-])[C@@H](CO)O2)c(=O)n(CCCCC(=O)NCCNC(=S)Nc2ccc3c(c2)C(=O)OC32c3ccc(O)cc3Oc3cc(O)ccc32)c1=O [Example 7, 5-[[5-(3'-azido-3'-deoxythymid-3-yl)-valeramido]-ethylthiocarbamyl]-fluorescein] |  |  | 1 | 197 P × 1000 | > 8.0 µg/mL | 3 |  |  |
| Cc1cn([C@H]2C[C@H](N=[N+]=[N-])[C@@H](CO)O2)c(=O)n(CCCN2C(=O)c3ccccc3C2=O)c1=O [Example 26, 3-(3-phthalimidopropyl)-3'-azido-3'-deoxythymidine] |  |  |  |  |  |  | immunologically active |  |
| Cc1cn([C@H]2C[C@H](N=[N+]=[N-])[C@@H](CO)O2)c(=O)n(CC(=O)NCCNC(=S)Nc2ccc3c(c2)C(=O)OC32c3ccc(O)cc3Oc3cc(O)ccc32)c1=O [Example 23, 5-[[2-(3'-azido-3'-deoxythymid-3-yl)-acetamido]-ethylthiocarbamyl]-fluorescein] | 173 P × 1000 | 2.4 µg/mL (≈ 3.17 µM) | 53 | 164 P × 1000 | 1.4 µg/mL (≈ 1.85 µM) | 28 |  |  |
| Cc1cn([C@H]2C[C@H](N=[N+]=[N-])[C@@H](CO)O2)c(=O)n(CCCNC(=S)Nc2ccc3c(c2)C2(OC3=O)c3cc(I)c(O)c(I)c3Oc3c2cc(I)c(O)c3I)c1=O [Example 36, 6-[3-(3 '-amido-3'-deoxythymid-3-yl)-propyl-thiocarbamyl]-erythrosin] |  |  |  |  |  |  | immunologically active |  |
| Cc1cn([C@H]2C[C@H](N=[N+]=[N-])[C@@H](CO)O2)c(=O)n(CCNc2nc(Cl)nc(Nc3ccc4c(c3)C(=O)OC43c4ccc(O)cc4Oc4cc(O)ccc43)n2)c1=O [AZT--(CH2)n --NH:DTAF, n=2] | 162 P × 1000 | 4.0 µg/mL (≈ 5.2 µM) | 250 | 156 P × 1000 | > 8.0 µg/mL | 125 |  |  |
